Earlier results in patent publication US20070059360A1, “WATER-DISPERSIBLE ANTI-RETROVIRAL PHARMACEUTICAL COMPOSITIONS” (priority 2005, published 2007).

Biological target: HIV reverse transcriptase (Human immunodeficiency virus type 1 group M subtype B, UniProt P04585)
Conditions: in vitro; reported by S. A. Riddler, et al

**Q.** Which “Inhibition of HIV reverse transcriptase” value does the source give for Cc1cn([C@H]2C=C[C@@H](CO)O2)c(=O)[nH]c1=O [Stavudine, 2′,3′-didehydro-3′-deoxythymidine] here?
**A.** potent inhibitor
